From patent US20240376100A1 (Redona Therapeutics, Inc., priority 2021, published 2024)
Counter-ions that a name gives are not always drawn.

Biological target: PAPD5 enzyme (Homo sapiens, UniProt Q8NDF8)
Assay: PAPD5 assay (AMP incorporation onto 3'-terminus of RNA substrate, fluorescence quench)
Assay type: biochemical
Details: PAPD5 protein 0.3 nM, ATP 50 μM, 30 minutes preincubation, room temperature; read-out: Potency PAPD5 IC50
Description: The purpose of the PAPD5 assay is to determine compound potency against PAPD5 enzyme through the measurement of IC50. Compound inhibition is measured as a function of AMP incorporation onto the 3′-terminus of an RNA substrate in the presence of active PAPD5, ATP, and inhibitor. The PAPD5 assay was done in a black, non-binding, 384 well plate (Corning #3575). All steps were performed at room temperature. For a typical assay, a 40 ul aliquot of assay buffer (50 mM HEPES pH 7.3, 20 mM KCl, 10 mM MgCl2, 10 mMM DTT, 0.01% Triton X-100, 40 U/ml RNAsin (Promega)) containing PAPD5 protein (final 10 concentration: 0.3 nM) and ATP (final concentration 50 μM) was added to each well. Next, 1 ul of compound in 100% DMSO is transferred from a compound dilution plate in which the compound is serially diluted. The plate was placed on a plate shaker for 30 seconds to produce mixing, then incubated for 30 minutes. Next, 10 ul of a 5× mix of RNA substrate (5′-fluorescein-AUAGAG-3′ (IDT)) and a DNA oligonucleotide that is complementary to the AMP modified RNA product (5′-TCTCTATT-3′-TAMRA, wherein the first two nucleotides are locked nucleic acids (IDT)) was added (final concentrations: 5 nM and 20 nM, respectively). The plate was placed on a plate shaker for 30 seconds to produce mixing then immediately placed in a Biotek Cytation 5 plate reader, and the time-dependent decrease in fluorescein fluorescence resulting from annealing of the TAMRA labeled quenching probe was recorded, using the kinetics mode of the reader (typical run time is 90 minutes). Reaction rates were obtained using linear fits to the early portion of progress curves. IC50 values were calculated using a four-parameter fit with 100% enzyme activity determined from the DMSO control and 0% activity from control samples lacking UTP.
“+” represents an IC50 value that is greater than 50 PM; “++” represents an IC50 value that is greater than 10 μM and equal to or less than 50 μM; “+++” represents an IC50 value that is greater than 1 μM and equal to or less than 10 μM; and “++++” represents an IC50 value that is equal to or less than 1 μM.

Sequence of PAPD5 enzyme (Q8NDF8 whole entry): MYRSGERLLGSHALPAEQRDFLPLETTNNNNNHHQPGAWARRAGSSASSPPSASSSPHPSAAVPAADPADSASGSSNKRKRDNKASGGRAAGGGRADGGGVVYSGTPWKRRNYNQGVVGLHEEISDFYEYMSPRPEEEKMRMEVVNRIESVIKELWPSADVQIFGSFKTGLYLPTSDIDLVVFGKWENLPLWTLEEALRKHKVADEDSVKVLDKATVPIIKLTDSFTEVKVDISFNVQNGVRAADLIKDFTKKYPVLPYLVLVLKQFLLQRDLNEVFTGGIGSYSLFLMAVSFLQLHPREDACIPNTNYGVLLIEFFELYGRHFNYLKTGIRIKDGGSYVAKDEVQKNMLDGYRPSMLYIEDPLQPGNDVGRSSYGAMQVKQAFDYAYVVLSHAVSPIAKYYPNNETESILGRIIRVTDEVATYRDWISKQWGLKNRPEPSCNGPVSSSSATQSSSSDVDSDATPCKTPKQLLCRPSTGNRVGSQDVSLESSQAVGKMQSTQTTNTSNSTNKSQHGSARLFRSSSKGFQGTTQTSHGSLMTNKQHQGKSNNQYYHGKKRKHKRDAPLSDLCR

| SMILES | IC50 [nM] |
| --- | --- |
| CS(=O)(=O)Nc1ccc(-n2cc(C(=O)O)c(=O)c3cc(C#N)c(N4Cc5cccnc5C4)cc32)c(F)c1 [Example 57, 6-cyano-7-(5,7-dihydro-6H-pyrrolo[3,4-b]pyridin-6-yl)-1-(2-fluoro-4-(methylsulfonamido)phenyl)-4-oxo-1,4-dihydroquinoline-3-carboxylic acid] | ≤ 1000 |
| COCCOc1ccc(-n2cc(C(=O)O)c(=O)c3cc(C#N)c(N4Cc5cccnc5C4)cc32)cn1 [Example 58, 6-cyano-7-(5,7-dihydro-6H-pyrrolo[3,4-b]pyridin-6-yl)-1-(6-(2-methoxyethoxy)pyridin-3-yl)-4-oxo-1,4-dihydroquinoline-3-carboxylic acid] | ≤ 1000 |
| CN(C)CCOc1ccc(-n2cc(C(=O)O)c(=O)c3cc(C#N)c(N4Cc5cccnc5C4)cc32)cn1 [Example 59, 6-cyano-7-(5,7-dihydro-6H-pyrrolo[3,4-b]pyridin-6-yl)-1-(6-(2-(dimethylamino)ethoxy)pyridin-3-yl)-4-oxo-1,4-dihydroquinoline-3-carboxylic acid hydrochloride] | ≤ 1000 |
| Cc1cc(O)ncc1-n1cc(C(=O)O)c(=O)c2cc(C#N)c(N3Cc4cccnc4C3)cc21 [Example 60, 6-cyano-7-(5,7-dihydro-6H-pyrrolo[3,4-b]pyridin-6-yl)-1-(6-hydroxy-4-methylpyridin-3-yl)-4-oxo-1,4-dihydroquinoline-3-carboxylic acid] | ≤ 1000 |
| CC1(Cn2cc(C(=O)O)c(=O)c3cc(Cl)c(N4Cc5cccnc5C4)nc32)CCC1 [Example 61, 6-chloro-7-(5,7-dihydro-6H-pyrrolo[3,4-b]pyridin-6-yl)-1-((1-methylcyclobutyl)methyl)-4-oxo-1,4-dihydro-1,8-naphthyridine-3-carboxylic acid] | ≤ 1000 |
| N#Cc1cc2c(=O)c(C(=O)O)cn(CC3CCCC3)c2nc1N1Cc2cccnc2C1 [Example 62, 6-cyano-1-(cyclopentylmethyl)-7-(5,7-dihydro-6H-pyrrolo[3,4-b]pyridin-6-yl)-4-oxo-1,4-dihydro-1,8-naphthyridine-3-carboxylic acid] | ≤ 1000 |
| N#Cc1cc2c(=O)c(C(=O)O)cn(CC3CCCCC3)c2nc1N1Cc2cccnc2C1 [Example 63, 6-cyano-1-(cyclohexylmethyl)-7-(5,7-dihydro-6H-pyrrolo[3,4-b]pyridin-6-yl)-4-oxo-1,4-dihydro-1,8-naphthyridine-3-carboxylic acid] | ≤ 1000 |
| Cc1ccnc2c1CN(c1nc3c(cc1Cl)c(=O)c(C(=O)O)cn3-c1cnccn1)C2 [Example 64, 6-chloro-7-(4-methyl-5,7-dihydro-6H-pyrrolo[3,4-b]pyridin-6-yl)-4-oxo-1-(pyrazin-2-yl)-1,4-dihydro-1,8-naphthyridine-3-carboxylic acid] | ≤ 1000 |
| O=C(O)c1cn(Cc2ccccn2)c2nc(N3Cc4cccnc4C3)c(Cl)cc2c1=O [Example 65, 6-chloro-7-(5,7-dihydro-6H-pyrrolo[3,4-b]pyridin-6-yl)-4-oxo-1-(pyridin-2-ylmethyl)-1,4-dihydro-1,8-naphthyridine-3-carboxylic acid] | ≤ 1000 |
| O=C(O)c1cn(Cc2ccncc2)c2nc(N3Cc4cccnc4C3)c(Cl)cc2c1=O [Example 66, 6-chloro-7-(5,7-dihydro-6H-pyrrolo[3,4-b]pyridin-6-yl)-4-oxo-1-(pyridin-4-ylmethyl)-1,4-dihydro-1,8-naphthyridine-3-carboxylic acid] | ≤ 1000 |
| O=C(O)c1cn(Cc2cccnc2)c2nc(N3Cc4cccnc4C3)c(Cl)cc2c1=O [Example 67, 6-chloro-7-(5,7-dihydro-6H-pyrrolo[3,4-b]pyridin-6-yl)-4-oxo-1-(pyridin-3-ylmethyl)-1,4-dihydro-1,8-naphthyridine-3-carboxylic acid] | ≤ 1000 |
| O=C(O)c1cn(Cc2ccccc2F)c2nc(N3Cc4cccnc4C3)c(Cl)cc2c1=O [Example 68, 6-chloro-7-(5,7-dihydro-6H-pyrrolo[3,4-b]pyridin-6-yl)-1-(2-fluorobenzyl)-4-oxo-1,4-dihydro-1,8-naphthyridine-3-carboxylic acid] | ≤ 1000 |
| O=C(O)c1cn(Cc2ccccc2Cl)c2nc(N3Cc4cccnc4C3)c(Cl)cc2c1=O [Example 69, 6-chloro-1-(2-chlorobenzyl)-7-(5,7-dihydro-6H-pyrrolo[3,4-b]pyridin-6-yl)-4-oxo-1,4-dihydro-1,8-naphthyridine-3-carboxylic acid] | ≤ 1000 |
| Cc1ccccc1Cn1cc(C(=O)O)c(=O)c2cc(Cl)c(N3Cc4cccnc4C3)nc21 [Example 70, 6-chloro-7-(5,7-dihydro-6H-pyrrolo[3,4-b]pyridin-6-yl)-1-(2-methylbenzyl)-4-oxo-1,4-dihydro-1,8-naphthyridine-3-carboxylic acid] | ≤ 1000 |
| COc1ncccc1Cn1cc(C(=O)O)c(=O)c2cc(Cl)c(N3Cc4cccnc4C3)nc21 [Example 71, 6-chloro-7-(5,7-dihydro-6H-pyrrolo[3,4-b]pyridin-6-yl)-1-((2-methoxypyridin-3-yl)methyl)-4-oxo-1,4-dihydro-1,8-naphthyridine-3-carboxylic acid] | ≤ 1000 |
| CC(C)(C)OC(=O)N1CCC(Cn2cc(C(=O)O)c(=O)c3cc(Cl)c(N4Cc5cccnc5C4)nc32)CC1 [Example 72, 1-((1-(tert-butoxycarbonyl)piperidin-4-yl)methyl)-6-chloro-7-(5,7-dihydro-6H-pyrrolo[3,4-b]pyridin-6-yl)-4-oxo-1,4-dihydro-1,8-naphthyridine-3-carboxylic acid] | ≤ 1000 |
| CC(C)(C)OC(=O)N1CCC(n2cc(C(=O)O)c(=O)c3cc(Cl)c(N4Cc5cccnc5C4)nc32)CC1 [Example 73, 1-(1-(tert-butoxycarbonyl)piperidin-4-yl)-6-chloro-7-(5,7-dihydro-6H-pyrrolo[3,4-b]pyridin-6-yl)-4-oxo-1,4-dihydro-1,8-naphthyridine-3-carboxylic acid] | ≤ 1000 |
| COc1cnc(-n2cc(C(=O)O)c(=O)c3cc(Cl)c(N4Cc5cccnc5C4)nc32)cn1 [Example 74, 6-chloro-7-(5,7-dihydro-6H-pyrrolo[3,4-b]pyridin-6-yl)-1-(5-methoxypyrazin-2-yl)-4-oxo-1,4-dihydro-1,8-naphthyridine-3-carboxylic acid] | ≤ 1000 |
| COc1cnc(-n2cc(C(=O)O)c(=O)c3cc(F)c(N4Cc5cccnc5C4)cc32)cn1 [Example 75, 7-(5,7-dihydro-6H-pyrrolo[3,4-b]pyridin-6-yl)-6-fluoro-1-(5-methoxypyrazin-2-yl)-4-oxo-1,4-dihydroquinoline-3-carboxylic acid] | ≤ 1000 |
| COc1cnc(-n2cc(C(=O)O)c(=O)c3cc(Cl)c(N4Cc5cccnc5C4)cc32)cn1 [Example 76, 6-chloro-7-(5,7-dihydro-6H-pyrrolo[3,4-b]pyridin-6-yl)-1-(5-methoxypyrazin-2-yl)-4-oxo-1,4-dihydroquinoline-3-carboxylic acid] | ≤ 1000 |
| Cc1cc(N)ncc1-n1cc(C(=O)O)c(=O)c2cc(F)c(N3Cc4cccnc4C3)nc21 [Example 77, 1-(6-amino-4-methylpyridin-3-yl)-7-(5,7-dihydro-6H-pyrrolo[3,4-b]pyridin-6-yl)-6-fluoro-4-oxo-1,4-dihydro-1,8-naphthyridine-3-carboxylic acid TFA salt] | ≤ 1000 |
